For assay [1], the target named is T1, Alpha-galactosidase A (Homo sapiens) (UniProt P06280).
T1 sequence (whole entry): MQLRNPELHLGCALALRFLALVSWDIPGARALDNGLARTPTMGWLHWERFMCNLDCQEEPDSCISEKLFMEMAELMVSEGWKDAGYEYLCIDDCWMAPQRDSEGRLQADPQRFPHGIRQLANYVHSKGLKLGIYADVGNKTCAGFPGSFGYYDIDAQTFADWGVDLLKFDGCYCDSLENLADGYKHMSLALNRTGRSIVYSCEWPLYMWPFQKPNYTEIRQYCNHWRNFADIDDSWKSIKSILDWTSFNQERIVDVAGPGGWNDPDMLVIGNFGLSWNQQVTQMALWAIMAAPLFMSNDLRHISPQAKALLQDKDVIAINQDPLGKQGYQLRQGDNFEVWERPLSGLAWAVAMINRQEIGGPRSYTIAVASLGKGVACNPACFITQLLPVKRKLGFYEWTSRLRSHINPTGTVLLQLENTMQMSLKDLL
Description: Stabilization of human recombinant alpha-galactosidase A using 4-MU-alpha-d-galactopyranoside as substrate assessed as inhibition of thermal-induced denaturation preincubated for 10 to 30 mins followed by substrate addition and measured after 15 mins by fluorescence assay.

Assay [2] concerns the target T1, Alpha-galactosidase A (Homo sapiens). Description: Stabilization of human recombinant alpha-galactosidase A using 4-MU-alpha-d-galactopyranoside as substrate assessed as inhibition of thermal-induced denaturation at 100 uM preincubated for 10 to 30 mins followed by substrate addition and measured after 15 mins by fluorescence assay.
Assay [3] deals with T2, Beta-galactosidase (Homo sapiens) (UniProt P16278).
T2 sequence (whole entry): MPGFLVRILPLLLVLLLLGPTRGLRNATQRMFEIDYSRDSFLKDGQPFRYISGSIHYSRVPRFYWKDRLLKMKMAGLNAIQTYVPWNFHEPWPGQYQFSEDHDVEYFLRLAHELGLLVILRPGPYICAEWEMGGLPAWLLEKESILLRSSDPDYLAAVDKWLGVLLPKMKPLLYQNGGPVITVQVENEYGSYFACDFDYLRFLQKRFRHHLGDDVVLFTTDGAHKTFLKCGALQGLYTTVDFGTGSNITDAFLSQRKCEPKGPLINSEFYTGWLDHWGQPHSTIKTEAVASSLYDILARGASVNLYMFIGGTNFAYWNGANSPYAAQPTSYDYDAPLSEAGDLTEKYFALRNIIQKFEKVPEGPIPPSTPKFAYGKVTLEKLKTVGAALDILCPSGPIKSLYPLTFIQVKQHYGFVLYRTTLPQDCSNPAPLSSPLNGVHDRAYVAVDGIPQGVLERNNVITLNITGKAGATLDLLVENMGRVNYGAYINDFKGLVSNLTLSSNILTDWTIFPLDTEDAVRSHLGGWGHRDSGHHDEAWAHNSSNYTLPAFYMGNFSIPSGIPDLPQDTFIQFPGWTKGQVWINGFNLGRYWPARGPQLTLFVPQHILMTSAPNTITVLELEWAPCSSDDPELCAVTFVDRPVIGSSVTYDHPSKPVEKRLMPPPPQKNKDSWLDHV
The experiment in a line: Inhibition of human beta-galactosidase at 100 uM using 4-MU-beta-d-galactoside as substrate by fluorescence assay.

For assay [4], the target named is T3, Alpha-galactosidase A (Homo sapiens, UniProt P06280).
T3 sequence (P06280 whole entry): T1 sequence (whole entry)
Description: Competitive inhibition of human recombinant alpha-galactosidase A using 4-MU-alpha-d-galactopyranoside as substrate by Lineweaver-Burk plot method.

Usually Ki stands for a dissociation constant, usually derived from enzyme kinetics or from competition with a known ligand.

Calls of active or inactive are those of the source. The calls are words filed in the database; no cut-off is given here.

Regarding `NC[C@H]1NC[C@H](O)[C@@H](O)[C@H]1O`, the Activity entry in assay [1] is “Dose-dependent effect”.

On to `NC[C@H]1NC[C@H](O)[C@H](O)[C@H]1O`, for which, in assay [2], the result was inactive. Also, in assay [3], the inhibition result was “inactive”.

Take `NC[C@@H]1NC[C@H](O)[C@H](O)[C@H]1O`: in assay [2], the result was inactive. Further, the inhibition entry in assay [3] is “inactive”.

Take `O=C(/C=C/c1cccc(Br)c1)NC[C@H]1NC[C@H](O)[C@@H](O)[C@H]1O`: in assay [4], the inhibitory constant (Ki) came out at 3.5 µM.

Turning to `NC[C@@H]1NC[C@H](O)[C@@H](O)[C@H]1O`, in assay [2], the outcome was inactive. Besides, the inhibition entry in assay [3] was “inactive”.

The values are drawn from ChEMBL document CHEMBL4145459, “Synthesis of (3S,4S,5S)-trihydroxylpiperidine derivatives as enzyme stabilizers to improve therapeutic enzyme activity in Fabry patient cell lines” (Eur J Med Chem, 2018).
